The values that follow come from ChEMBL document CHEMBL5532635, “The role of natural anti-parasitic guided development of synthetic drugs for leishmaniasis” (Eur J Med Chem, 2023).

The test system of experiment [1] is Leishmania donovani. The experiment can be described thus: Antileishmanial activity against Leishmania donovani promastigotes at 25 uM. Type of experiment: functional.
Experiment [2] has as its system Leishmania donovani. The experiment can be described thus: Antileishmanial activity against Leishmania donovani promastigotes at 50 uM. Type of experiment: functional.
Experiment [3] relates to Leishmania donovani. The experiment can be described thus: Antileishmanial activity against Leishmania donovani promastigotes assessed as inhibition of parasite growth incubated for 4 hrs by MTT assay. Type of experiment: functional, organism-based.
The subject of experiment [4] is Leishmania infantum. The experiment can be described thus: Antileishmanial activity against Leishmania infantum assessed as reduction in parasite growth. In kind it is functional, organism-based.
Experiment [5] has as its system Leishmania donovani. The experiment can be described thus: Antileishmanial activity against Leishmania donovani amastigotes assessed as reduction in microbial growth. Type of experiment: functional, organism-based.
Experiment [6] relates to Leishmania amazonensis. The experiment can be described thus: Antileishmanial activity against Leishmania amazonensis promastigotes assessed as reduction in parasite viability after 48 hrs by MTT assay. In kind it is functional, organism-based.
In experiment [7] the test system is Leishmania infantum. The experiment can be described thus: Antileishmanial activity against Leishmania infantum promastigote assessed as reduction in parasite growth after 72 hrs by MTT assay. In kind it is functional, organism-based.
For experiment [8], the system named is Leishmania amazonensis. In words: Antileishmanial activity against Leishmania amazonensis amastigotes assessed as reduction in parasite growth. Type of experiment: functional, organism-based.
Experiment [9] relates to Leishmania amazonensis. In words: Antileishmanial activity against Leishmania amazonensis promastigotes assessed as reduction in parasite viability after 72 hrs by CCK-8 assay. In kind it is functional, organism-based.
For the next experiment, the system named is Leishmania mexicana. In words: Antileishmanial activity against Leishmania mexicana intracellular amastigotes infected in J774 macrophages assessed as reduction in parasite viability after 72 hrs by MTT based analysis. The settings on record: J774, 72 h. In kind it is functional, organism-based.
In another experiment the test system is J774.A1. In words: Cytotoxicity against mouse J774.A1 cells assessed as reduction in cell viability incubated for 24 hrs by MTT assay. In kind it is functional.
Experiment [10] has as its system Leishmania amazonensis. The experiment can be described thus: Antileishmanial activity against Leishmania amazonensis MHOM/BR/1989/166MJO promastigotes infected in mouse macrophage assessed as parasite growth inhibition measured after 72 hrs by MTT assay. Type of experiment: functional, organism-based.
The test system of experiment [11] is Leishmania amazonensis. In words: Antileishmanial activity against Leishmania amazonensis MHOM/BR/1989/166MJO promastigotes assessed as reduction in […] growth. Type of experiment: functional, organism-based.
The test system of experiment [12] is Leishmania tropica. In words: Antileishmanial activity against Leishmania tropica promastigotes incubated for 24 hrs measured by alamar blue staining based fluorescence analysis. In kind it is functional, organism-based.
Experiment [13] deals with Leishmania tropica. The experiment can be described thus: Antileishmanial activity against Leishmania tropica amastigotes incubated for 24 hrs measured by alamar blue staining based fluorescence analysis. Type of experiment: functional, organism-based.
Experiment [14] concerns Leishmania major. The experiment can be described thus: Antileishmanial activity against Leishmania major IR-173 amastigotes assessed as parasite growth inhibition incubated for 72 hrs by resazurin dye based assay. In kind it is functional, organism-based. Conditions: IR-173, 72 h.
Experiment [15] has as its system Leishmania amazonensis. In words: Antileishmanial activity against Leishmania amazonensis promastigotes assessed as inhibition of parasite growth. Type of experiment: functional, organism-based.
Experiment [16] relates to Leishmania donovani. The experiment can be described thus: Antileishmanial activity against Leishmania donovani amastigotes assessed as parasite growth inhibition incubated for 72 hrs by MTS assay. Type of experiment: functional, organism-based.
For experiment [17], the system named is Leishmania infantum. The experiment can be described thus: Antileishmanial activity against Leishmania infantum MHOM/BR/70/BH46 promastigotes assessed as inhibition of parasite growth incubated for 72 hrs by Neubauer chamber based analysis. In kind it is functional, organism-based. Conditions: MHOM/BR/70/BH46, 72 h.
For experiment [18], the system named is Leishmania major. In words: Antileishmanial activity against Leishmania major amastigotes assessed as reduction in parasite growth incubated for 72 hrs by MTT assay. In kind it is functional, organism-based.
Experiment [19] concerns Leishmania major. The experiment can be described thus: Antileishmanial activity against Leishmania major promastigotes assessed as reduction in parasite growth incubated for 72 hrs by MTT assay. In kind it is functional, organism-based.
Experiment [20] has as its system Leishmania donovani. The experiment can be described thus: Antileishmanial activity against Leishmania donovani BHU575 promastigotes assessed as cell viability by MTT assay. Type of experiment: functional, organism-based.
In experiment [21] the test system is Leishmania tropica. The experiment can be described thus: Antileishmanial activity against Leishmania tropica promastigotes assessed as inhibition of parasite growth. In kind it is functional, organism-based.
In experiment [22] the test system is Leishmania infantum. The experiment can be described thus: Antileishmanial activity against Leishmania infantum amastigotes infected in human THP-1 cells assessed as reduction in parasite growth incubated for 72 hrs by high content imaging analysis. In kind it is functional, organism-based. Conditions: THP-1, 72 h.
In experiment [23] the test system is Leishmania amazonensis. The experiment can be described thus: Antileishmanial activity against Leishmania amazonensis promastigotes infected in BALB/c mouse assessed as reduction of IgG1 level at 400 mg/kg per day, ip administered for 30 days measured at 10 week by ELISA assay. Type of experiment: functional, organism-based.
Experiment [24] relates to Leishmania amazonensis. In words: Antileishmanial activity against Leishmania amazonensis promastigotes. In kind it is functional, organism-based.
Experiment [25] relates to Leishmania infantum. The experiment can be described thus: Antileishmanial activity Leishmania infantum promastigotes assessed as reduction in parasite growth incubated for 72 hrs by alamar blue assay. Type of experiment: functional, organism-based.

Converted amounts (≈) assume the structure as drawn.

As for `COc1cc(/C=C2/Oc3cc(O)ccc3C2=O)cc(OC)c1`, the Activity was found to be 106% in the experiment on Leishmania donovani [1] and 109% with Leishmania donovani [2].
Take `O=c1c2ccccc2nc(/C=C/c2ccc([N+](=O)[O-])cc2)n1-c1ccccc1`: the IC50 in the experiment with Leishmania donovani [3] amounted to 0.021 µM.
With `COc1ccc(Cn2c(C)cc(O)c(C(=O)Nc3ccc(C)cc3)c2=O)cc1`, the IC50 in the experiment on Leishmania infantum [4] worked out at 55 µM.
As for `NC(=S)N/N=C(/C=C/c1cccnc1)c1cccc(NC(=O)Nc2ccc(Cl)cc2)c1`, the IC50 in the experiment with Leishmania donovani [5] is 3.81 µM.
As for `COC(=O)C1=CCC[C@@H]2[C@@](C)(CCc3ccco3)[C@H](C(=O)OC)CC[C@@]12C`, the IC50 in the experiment on Leishmania amazonensis [6] was 0.027 µM.
Regarding `C=C[C@@H](c1cc(CC=C(C)C)ccc1O)c1cc(CC=C(C)C)c(OC)cc1O`, the IC50 is 5.2 µM in the experiment on Leishmania infantum [7], 1.13 µM in the experiment on Leishmania amazonensis [8] and 4.5 µM in the experiment on Leishmania amazonensis [9].
`COc1cc(/C=C/C(=O)c2cccc([N+](=O)[O-])c2)ccc1OCC=C(C)C`: the IC50 in the experiment on Leishmania mexicana was determined as 4.57 µM.
With `COc1cc(C(=O)/C=C/c2ccc([N+](=O)[O-])cc2)c(C(C)=O)c2c(OC)cccc12`, in the experiment on J774.A1, the CC50 came out at 373 µM. The IC50 turned out to be 18.5 µM in the experiment with Leishmania amazonensis [10] and 3.3 µM in the experiment on Leishmania amazonensis [11].
`Nc1ccc(C(=O)N/N=C2\C(=O)N(CC(O)COc3cc(=O)oc4ccccc34)c3ccccc32)cc1` (stereo not given): the IC50 with Leishmania tropica [12] came to 1.62 µM; in the experiment on Leishmania tropica [13], 2.85 µM.
With `Cc1ccc2c(NCCCCCNC(=O)c3cccc(/C=C/C(=O)c4ccc(C)o4)c3)ccnc2c1`, the IC50 with Leishmania major [14] was 0.46 µM.
Regarding `COC(=O)C1=CCC[C@@H]2[C@@](C)(CCc3ccco3)[C@H](C(=O)O)CC[C@@]12C`, the IC50 in the experiment on Leishmania amazonensis [15] worked out at 0.11 µM.
With `C/C1=C\C(=O)OC(C(C)(C)C)CCCC(O)CCCC(O)CCCC(O)CCCC(O)CCCC(O)CCCC(O)CCCC(O)CCCCCC(O)C1` (stereo not given), in the experiment with Leishmania donovani [16], the IC50 amounted to 4.67 µM.
As for `Cc1cc(Br)cc2c(/C=N\NC(=S)Nc3ccccc3)c[nH]c12`, the IC50 in the experiment with Leishmania infantum [17] came to 5.6 µM.
As for `COc1cc2c(c(OC)c1OC)-c1ccc(OC)c(=O)cc1[C@@H](NC=O)CC2`, in the experiment on Leishmania major [18], the IC50 was 10.2 µg/mL (≈ 26.5 µM).
For `COc1cc2c(c(OC)c1O)-c1ccc(OC)c(=O)cc1[C@@H](NC(C)=O)CC2` [2-DESMETHYLCOLCHICIN], the IC50 in the experiment with Leishmania major [18] amounted to 10.2 µg/mL (≈ 26.5 µM); in the experiment with Leishmania major [19] it was 0.5 µg/mL (≈ 1.3 µM).
On to `C[C@@H]1[C@H](O)[C@@H](C)/C=C/C=C/C=C/C=C/C=C/C=C/C=C/[C@H](O[C@@H]2O[C@H](C)[C@@H](O)[C@H](N)[C@@H]2O)C[C@@H]2O[C@](O)(C[C@@H](O)C[C@@H](O)[C@H](O)CC[C@@H](O)C[C@@H](O)CC(=O)O[C@H]1C)C[C@H](O)[C@H]2C(=O)O` [AMPHOTERICIN B], for which, in the experiment with Leishmania donovani [3], the IC50 worked out at 0.046 µM.
For the compound `CC1=CCC[C@H]2[C@](C)(Cc3cc(O)ccc3O)[C@@H](C)CC[C@]12C` [AVAROL], the results for the IC50 in the experiment on Leishmania donovani [20], with Leishmania tropica [21] and in the experiment with Leishmania infantum [22] were 7.42 µM, 7.08 µM and 3.19 µM, respectively.
With `CC1=CCC[C@H]2[C@](C)(CC3=CC(=O)C=CC3=O)[C@@H](C)CC[C@]12C` [AVARONE], the figures for the IC50 in the experiment with Leishmania donovani [20] and in the experiment on Leishmania tropica [21] were 28.2 µM and 20.3 µM, respectively.
Consider `COc1cc2c(c(OC)c1OC)-c1ccc(OC)c(=O)cc1[C@@H](NC(C)=O)CC2` [COLCHICINE], for which the IC50 came to 10.2 µg/mL (≈ 25.5 µM) in the experiment with Leishmania major [18] and 0.5 µg/mL (≈ 1.25 µM) with Leishmania major [19].
Take `COc1cc2c(c(OC)c1OC)-c1ccc(OC)c(=O)cc1[C@@H](NC(=O)CO)CC2` [COLCHIFOLINE]: the results for the IC50 with Leishmania major [18] and with Leishmania major [19] were 14 µg/mL (≈ 33.7 µM) and 0.7 µg/mL (≈ 1.68 µM), respectively.
`CC[C@@H]1CN2CCc3c([nH]c4ccccc34)[C@@H]2C[C@@H]1/C(=C\OC)C(=O)OC` [CORYNANRHEIDINE]: the IC50 in the experiment on Leishmania amazonensis [23] is 2.81 µM.
As to `CN[C@H]1CCc2cc(OC)c(OC)c(OC)c2-c2ccc(OC)c(=O)cc21` [DEMECOLCINE], the IC50 in the experiment on Leishmania major [18] was found to be 14.8 µg/mL (≈ 39.8 µM); in the experiment on Leishmania major [19], 0.7 µg/mL (≈ 1.88 µM).
Consider `CC1(C)C=Cc2c(ccc3c2OCC2c4cc5c(cc4OC32)OCO5)O1` (stereo not given) [LEIOCARPIN], for which the IC50 in the experiment with Leishmania amazonensis [24] is 7.1 µM; with Leishmania infantum [7] it was 15.5 µM; in the experiment with Leishmania amazonensis [9], 11.4 µM.
Take `CCCCCCCCCCCCCCCCOP(=O)([O-])OCC[N+](C)(C)C` [MILTEFOSINE]: the IC50 with Leishmania donovani [3] was 3.19 µM.
As to `COc1cc2ccc(=O)oc2cc1OC` [SCOPARONE], the EC50 in the experiment on Leishmania infantum [25] came out at 5.2 µM.
